Results: patent US8969629B2, “Cyclic compound, production process thereof, radiation-sensitive composition and resist pattern formation method” (Mitsubishi Gas Chemical Company, Inc., priority 2009, dated 2015)

Experiment: Solubility test of compound in safe solvent
Type: physicochemical
Conditions: for dissolution amount in CHN: cyclohexanone (CHN); for dissolution amount in PGME: propylene glycol monomethyl ether (PGME)
Text: A: 5.0 wt %≦dissolution amount
B: 3.0 wt %≦dissolution amount<5.0 wt %
C: dissolution amount<3.0 wt %

SMILES | dissolution amount in CHN | dissolution amount in PGME
Cc1cc(C2c3cc(c(OC4CCC(C)CC4)cc3O)C(c3ccc(O)c(O)c3)c3cc(c(O)cc3OC3CCC(C)CC3)C(c3ccc(O)c(O)c3)c3cc(c(OC4CCC(C)CC4)cc3O)C(c3ccc(O)c(O)c3)c3cc2c(O)cc3OC2CCC(C)CC2)ccc1O (centres unmarked) [CR-4A] | A (5.0 wt %≦dissolution amount) | A (5.0 wt %≦dissolution amount)
CC1CCC(Oc2cc(O)c3cc2C(c2ccc(O)cc2)c2cc(c(O)cc2OC2CCC(C)CC2)C(c2ccc(O)cc2)c2cc(c(OC4CCC(C)CC4)cc2O)C(c2ccc(O)cc2)c2cc(c(O)cc2OC2CCC(C)CC2)C3c2ccc(O)cc2)CC1 (centres unmarked) [CR-3A] | A (5.0 wt %≦dissolution amount) | A (5.0 wt %≦dissolution amount)
CCOc1cc(O)c2cc1C(c1ccc(OC)cc1)c1cc(c(O)cc1OCC)C(c1ccc(OC)cc1)c1cc(c(OCC)cc1O)C(c1ccc(OC)cc1)c1cc(c(O)cc1OCC)C2c1ccc(OC)cc1 (centres unmarked) [CR-9A, reference compound] | C (dissolution amount<3.0 wt %) | C (dissolution amount<3.0 wt %)
CC1CC(Oc2cc(O)c3cc2C(c2ccc(O)c(O)c2)c2cc(c(O)cc2OC2CC(C)CC(C)(C)C2)C(c2ccc(O)c(O)c2)c2cc(c(OC4CC(C)CC(C)(C)C4)cc2O)C(c2ccc(O)c(O)c2)c2cc(c(O)cc2OC2CC(C)CC(C)(C)C2)C3c2ccc(O)c(O)c2)CC(C)(C)C1 (centres unmarked) [CR-7A] | A (5.0 wt %≦dissolution amount) | A (5.0 wt %≦dissolution amount)
COc1cc(O)c2cc1C(c1ccc(C)cc1C)c1cc(c(O)cc1OC)C(c1ccc(C)cc1C)c1cc(c(OC)cc1O)C(c1ccc(C)cc1C)c1cc(c(O)cc1OC)C2c1ccc(C)cc1C (centres unmarked) [CR-8A, reference compound] | C (dissolution amount<3.0 wt %) | C (dissolution amount<3.0 wt %)
Oc1ccc(C2c3cc(c(OC4CCCCC4)cc3O)C(c3ccc(O)cc3)c3cc(c(O)cc3OC3CCCCC3)C(c3ccc(O)cc3)c3cc(c(OC4CCCCC4)cc3O)C(c3ccc(O)cc3)c3cc2c(O)cc3OC2CCCCC2)cc1 (centres unmarked) [CR-1A] | A (5.0 wt %≦dissolution amount) | A (5.0 wt %≦dissolution amount)
Oc1ccc(C2c3cc(c(OC4CCCCC4)cc3O)C(c3ccc(O)c(O)c3)c3cc(c(O)cc3OC3CCCCC3)C(c3ccc(O)c(O)c3)c3cc(c(OC4CCCCC4)cc3O)C(c3ccc(O)c(O)c3)c3cc2c(O)cc3OC2CCCCC2)cc1O (centres unmarked) [CR-2A] | A (5.0 wt %≦dissolution amount) | A (5.0 wt %≦dissolution amount)
